Assays:
[1] = Critical aggregation concentration (CAC) by dynamic light scattering in pH-adjusted PBS; type: physicochemical; conditions: for critical aggregation concentration (CAC) as a function of pH: pH 7.4 vs 5.5, DLS; for CAC over a range of pH values: DLS
Procedure: CAC values are calculated by preparing colloidal formulations with different concentrations and measuring the scattering intensity (or fluorescence intensity when appropriate). The data is then fit to Equation S4, which was derived from first principles (Equations S1-S3), using the MATLAB curve fitting toolbox to obtain the critical aggregation concentration (CAC) under the conditions used.
Colloids were formulated as described in Example 1. […] 100 μL of each sample was analyzed by DLS and the CAC's calculated as described in Example 1.
Colloids were formulated as described in Example 1. Briefly, solutions of fulvestrant analogue in DMSO were prepared at various concentrations and then diluted 100-fold with PBS at different […]. 100 μL of each sample was analyzed by DLS and the CAC's calculated as described in Example 1.
Colloids were formulated as described in Example 1. Briefly, solutions of siramesine in DMSO were prepared at various concentrations and then diluted 100-fold with pH-adjusted PBS containing stabilizer (where applicable). 100 μL of each sample was analyzed by DLS and the CACs calculated as described in Example 1.

[2] = Drug release from colloids (centrifugation, drug in supernatant by HPLC-MS-MS); type: physicochemical; conditions: for amount of drug released from co-colloids as a function of pH / drug release over time after acidification to pH 5.5: 12.5 μM lapatinib, 37.5 μM fulvestrant, 0.01 mg/mL PLAC-PEG in PBS
Procedure: Drug release was measured by centrifuging to pellet the colloids, and then by quantifying the drug in the supernatant. Colloid formulations were centrifuged at 16,000×g for 1 h, followed by withdrawal of 100 μL for quantification. Another 100 μL was withdrawn for DLS analysis to confirm that the colloids had completely settled out of solution. Non-centrifuged colloid suspensions were used as controls.
Drug concentration in samples from drug release and membrane permeability assays was quantified by high pressure liquid chromatography coupled with tandem mass spectrometry (HPLC-MS-MS). Protein was precipitated from samples in serum containing media by spiking with 10 μL of formic acid and adding acetonitrile to a final volume of 1 mL. The precipitated samples were then centrifuged at 16,000×g for 5 min to pellet the proteins. The drug-containing supernatant was then diluted in methanol such that the final drug concentration was less than 100 ng mL^−1. During the final dilution, internal standards (nilotinib for lapatinib and norethindrone for fulvestrant) were added to a final concentration of 25 ng/mL each. Standard curves were prepared in a similar way, by diluting 100 mM solutions of drug in DMSO with methanol to final concentrations of 100, 75, 50, 25, 10, 5, 2.5, and 1 ng mL^−1, each with 25 ng mL^−1 of internal standard.

Zeta potential = type: physicochemical; conditions: 0.1 mM KCl
Procedure: Colloids were prepared as described above, but with a single addition of 0.1 mM KCl solution instead of water and buffer. Zeta potential was immediately assessed using a Malvern Nano-ZS (Malvern Panalytical).

[3] = Membrane permeability assay; type: in vitro ADME; conditions: co-colloids 50 μM lapatinib, 150 μM fulvestrant, 0.04 mg/mL PLAC-PEG, 10% FBS, 6 h, 37° C., acidified vs not
Procedure: Supported artificial lipid membranes were prepared according to the manufacturer instructions (EMD Millipore cat #MATRNPS50). Briefly, a 1% (w/w) solution of egg lecithin in dodecane was prepared by sonicating until the solution was no longer cloudy. A 5 μL aliquot of this phospholipid solution was dropped by pipette into each well of the mesh plate, which wet the membrane and caused it to become translucent. Receiver solution was prepared as 1% (v/v) DMSO and 10% (v/v) FBS in PBS and 340 μL was pipetted into each well of the receiver plate. Lapatinib and fulvestrant solutions ranging from 0 to 5 μM for constructing the standard curve were prepared in identical media and pipetted into separate wells of the receiver plate. Colloids were prepared in PBS containing 10% (v/v) FBS as described above, and 150 μL was pipetted into the mesh plate wells corresponding to the receiver solution in the receiver plate. The mesh plate and receiver plate were gently mated, resulting in the receiver solution wetting the bottom of the phospholipid membrane. […] Finally, the stack was carefully disassembled and a 200 μL sample of receiver and standard curve solutions was withdrawn for drug quantification as described below. […]
Drug concentration in samples from drug release and membrane permeability assays was quantified by high pressure liquid chromatography coupled with tandem mass spectrometry (HPLC-MS-MS). […]

[4] = Acid responsiveness of colloids prepared at different pH (spun down, absorbance); type: physicochemical; conditions: with or without Herceptin as stabilizing agent
Procedure: The colloids were prepared in different pH conditions, spun down, extracted from the supernatant by organic solvent, dried, reconstituted in DMSO and measured for absorbance.

| Structure (SMILES) | critical aggregation concentration (CAC) as a function of pH [1] | CAC over a range of pH values [1] | amount of drug released from co-colloids as a function of pH [2] | drug release over time after acidification to pH 5.5 [2] | zeta potential (surface charge) (Zeta potential) | ionization state of released lapatinib ([2]; calculated by acid-base theory from release data, low pH) | transmembrane diffusion [3] | acid responsiveness of colloidal drug aggregate [4] |
| --- | --- | --- | --- | --- | --- | --- | --- | --- |
| Clc1ccccc1C(c1ccccc1)(c1ccccc1)n1ccnc1 [clotrimazole] | pH-dependent CACs | – | – | – | – | – | – | – |
| C[C@]12CC[C@@H]3c4ccc(O)cc4C[C@@H](CCCCCCCCC[S+]([O-])CCCC(F)(F)C(F)(F)F)[C@H]3[C@@H]1CC[C@@H]2O (stereo partly drawn) [fulvestrant] | did not dissolve on acidification | No change in CAC values | unaffected by pH | remained unresponsive to acid | negative zeta potential | – | – | – |
| CS(=O)(=O)CCNCc1ccc(-c2ccc3ncnc(Nc4ccc(OCc5cccc(F)c5)c(Cl)c4)c3c2)o1 [lapatinib] | pH-dependent CACs | – | increased with increasing acidity | rapidly reached an equilibrium that was sustained for 24 h | – | Most lapatinib that is released at low pH is ionized | reduced when the colloids were acidified | – |
| Fc1ccc(-n2cc(CCCCN3CCC4(CC3)OCc3ccccc34)c3ccccc32)cc1 [siramesine] | – | increase in CAC values | – | – | – | – | – | – |
| CNC(=O)c1cc(Oc2ccc(NC(=O)Nc3ccc(Cl)c(C(F)(F)F)c3)cc2)ccn1 [sorafenib] | did not dissolve on acidification | not pH-dependent | – | – | – | – | – | did not demonstrate acid responsiveness |

Source: patent US20220305013A1, “STABLE COLLOIDAL DRUG AGGREGATES AND METHODS OF MANUFACTURE AND USE THEREOF” (THE GOVERNING COUNCIL OF THE UNIVERSITY OF TORONTO, priority 2019, published 2022)
